Publication PMC8518391, “Synthesis and Biological Evaluation of Dantrolene‐Like Hydrazide and Hydrazone Analogues as Multitarget Agents for Neurodegenerative Diseases” (Chemmedchem, 2021)

Tests used:
hMAO A = target: T1, hMAO A (Homo sapiens, UniProt P21397); assay: biochemical; conditions: for inhibition at 10 µM: read-out: % inhibition at 10 μM hMAO A
T1 construct: purchased Sigma Aldrich
T1 sequence (P21397 1-527): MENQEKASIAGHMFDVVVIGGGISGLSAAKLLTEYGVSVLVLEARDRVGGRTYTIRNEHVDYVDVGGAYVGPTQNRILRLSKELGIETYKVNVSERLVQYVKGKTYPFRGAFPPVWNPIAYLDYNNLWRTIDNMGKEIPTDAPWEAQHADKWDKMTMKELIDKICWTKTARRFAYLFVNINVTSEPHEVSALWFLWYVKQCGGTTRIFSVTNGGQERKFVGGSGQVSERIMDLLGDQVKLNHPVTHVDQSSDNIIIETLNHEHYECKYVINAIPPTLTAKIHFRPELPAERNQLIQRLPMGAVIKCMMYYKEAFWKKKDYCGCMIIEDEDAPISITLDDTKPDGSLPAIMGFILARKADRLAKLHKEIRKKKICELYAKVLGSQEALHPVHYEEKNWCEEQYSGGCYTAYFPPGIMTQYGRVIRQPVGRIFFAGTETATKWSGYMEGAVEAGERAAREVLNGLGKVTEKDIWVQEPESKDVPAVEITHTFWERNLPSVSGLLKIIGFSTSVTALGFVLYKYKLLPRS
Excerpt: (§1) Readings were made with Infinite M1000 Pro plate reader (Tecan, Cernusco s.N., Italy) and statistical regressions with Prism software (GraphPad Prism version 5.00 for Windows, GraphPad Software, San Diego, CA, USA).

hAChE = target: T2, hAChE (Homo sapiens, UniProt P22303); assay: biochemical; conditions: for inhibition at 10 µM: read-out: % inhibition at 10 μM hAChE
T2 construct: purchased Sigma Aldrich
T2 sequence (P22303 32-614): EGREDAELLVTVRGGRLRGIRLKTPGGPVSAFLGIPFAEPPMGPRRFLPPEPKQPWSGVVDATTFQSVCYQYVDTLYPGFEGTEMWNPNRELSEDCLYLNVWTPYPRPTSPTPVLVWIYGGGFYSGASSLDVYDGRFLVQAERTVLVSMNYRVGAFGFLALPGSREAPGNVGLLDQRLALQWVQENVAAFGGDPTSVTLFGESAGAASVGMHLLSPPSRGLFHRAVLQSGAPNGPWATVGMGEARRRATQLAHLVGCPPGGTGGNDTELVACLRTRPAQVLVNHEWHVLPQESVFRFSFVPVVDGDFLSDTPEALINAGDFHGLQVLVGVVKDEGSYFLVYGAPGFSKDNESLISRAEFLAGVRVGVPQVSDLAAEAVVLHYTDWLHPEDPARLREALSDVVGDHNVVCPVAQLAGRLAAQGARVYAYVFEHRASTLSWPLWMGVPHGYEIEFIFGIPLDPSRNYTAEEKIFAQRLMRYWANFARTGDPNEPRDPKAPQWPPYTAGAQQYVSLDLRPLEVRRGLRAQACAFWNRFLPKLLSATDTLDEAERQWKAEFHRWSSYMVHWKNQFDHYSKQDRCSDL
Excerpt: as §1

hMAO B = target: T3, hMAO B (Homo sapiens, UniProt P27338); assay: biochemical; type: biochemical; conditions: for inhibition at 10 µM: read-out: % inhibition at 10 μM hMAO B
T3 construct: purchased Sigma Aldrich
T3 sequence (P27338 1-520): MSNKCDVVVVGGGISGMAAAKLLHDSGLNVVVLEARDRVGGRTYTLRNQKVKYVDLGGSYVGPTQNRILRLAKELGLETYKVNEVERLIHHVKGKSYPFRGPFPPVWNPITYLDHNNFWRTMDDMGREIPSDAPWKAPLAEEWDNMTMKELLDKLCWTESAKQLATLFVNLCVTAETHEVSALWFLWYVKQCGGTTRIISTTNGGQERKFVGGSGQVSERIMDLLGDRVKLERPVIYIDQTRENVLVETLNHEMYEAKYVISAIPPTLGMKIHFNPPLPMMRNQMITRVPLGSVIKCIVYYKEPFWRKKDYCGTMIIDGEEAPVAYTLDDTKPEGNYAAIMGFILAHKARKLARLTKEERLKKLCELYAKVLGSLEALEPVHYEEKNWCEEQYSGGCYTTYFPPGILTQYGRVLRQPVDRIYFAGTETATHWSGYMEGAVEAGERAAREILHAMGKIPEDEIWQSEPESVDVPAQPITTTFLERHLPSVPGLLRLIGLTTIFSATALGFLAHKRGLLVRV

[1] = Hydrolytic stability in buffered solution (PBS pH 7.4, 37 °C); type: physicochemical; conditions: 20 μM in 10 mM PBS pH 7.4, 37 °C, 6 h incubation
Description: The hydrolytic stability of some representative imino/hydrazone/hydrazide derivatives was determined in buffered aqueous media. […]. […]. The hydrolytic degradation of 9 in its starting reagents was confirmed by the comparison of the chromatograms of 9 and 2‐chloro‐4‐hydroxyaniline, obtained in the same chromatographic conditions (Figure 6B).
Stability studies in buffered solution were performed following an already described procedure,[23] on a Phenomenex C18 column (150×4.6 mm i.d., 3 μm particle size; Phenomenex, Castel Maggiore, Italy) using a mobile phase consisting of a mixture of methanol‐water (75 : 25 v/v, with aqueous formic acid 0.1 %). The used flow rate was 0.500 mL/min while the injection volume was 20 μL. Wavelength of UV‐Vis detector was adjusted at 254 nm. The chemical stability was evaluated in a phosphate buffer solution pH 7.4 (10 mM HPO4 ^2−/H2PO4 ^−; 100 mM NaCl) at 37 °C. Five different concentrations from 0.5 μM to 20 μM were studied in a 2 h time range (data not shown). Each concentration (0.5, 1, 5, 10 and 20 μM) was tested in triplicate starting from 3 different stocks solution (1 mM) prepared separately. The time range was extended to 6 h only for the samples at 20 μM concentration (Figure 6a).

[2] = RP-HPLC lipophilicity index log k’; type: physicochemical; conditions: MeOH/phosphate buffer pH 7.4; methanol/PBS 60:40 v/v
Excerpt: To investigate a possible correlation between MAO inhibitory potency and lipophilicity,[7] we calculated log P with three different programs (ChemDraw 15.0; ALOG PS 2.1; ChemSketch 2017, see Table S1 in Supporting Information) and compared the calculated values with experimental lipophilicity indexes as assessed by reversed‐phase (RP) HPLC in isocratic conditions for the majority of compounds. The log of capacity factors (log k’) measured by RP‐HPLC using a mixture of methanol/PBS (60 : 40, v/v) as the mobile phase are reported in Tables 1 and 2, along with Clog P values calculated with ChemDraw. These calculated lipophilicity descriptors correlated with the experimental log k’ values (n=13, r ^2=0.901) better than the other log Ps calculated by ALOG PS and ChemSketch computational tools (r ^2 equal 0.705 and 0.568, respectively). As shown by the scatter plots in Figure 4 and Figure S1 in Supporting Information, there is no evident correlation trend between MAO A/B inhibition data and lipophilicity calculated by the expert system implemented in ChemDraw for compounds achieving finite IC50 values.
Log k’ values (k’=(tr‐t0)/t0) and purity determinations were carried out using a Phenomenex Gemini C18 4.6×150 mm, with 3 μm size particles, built on a Waters double pump HPLC system in isocratic conditions. Injection volumes were 10 μL, flow rate was 0.5 mL/min, and detection was performed with UV (λ=254 and 370 nm). Samples were prepared by dissolving 0.1 mg/mL of the solute in 10 % v/v DMSO and 90 % v/v methanol. Retention times (tr) were measured at least from three separate injections, and dead time (t0) was the retention time of deuterated methanol. The mobile phase was filtered through a Supelco Nylon‐66 membrane 0.45 μm (Merck Life Science Srl, Milan, Italy) before use. For each reference compound, the average tr of three consecutive injections of 10 μL of sample was used to calculate the log k’ values. The eluent consisted of five different mixtures of methanol and PBS buffer 10 mM at pH 7.4, with methanol/buffer ratios ranging from 80 : 20 to 60 : 40 v/v.

Structure (SMILES) | inhibition at 10 µM (hMAO A) [%] | inhibition at 10 µM (hAChE) [%] | inhibition at 10 µM (hMAO B) [%] | IC50 (hMAO A) [µM] | hydrolytic stability [1] | log k’ (logarithm of capacity factor, RP-HPLC) [2] | IC50 (hMAO B) [µM] | IC50 (hAChE) [µM] | % inhibition at 10 μM hMAO B (hMAO B; 10 μM)
CS(=O)(=O)c1ccc(NN=Cc2ccc(-c3ccc(C#N)cc3)o2)cc1 [Compound 11, 4‐(5‐((2‐(4‐(methylsulfonyl)phenyl)hydrazono)methyl)furan‐2‐yl)benzonitrile] | 11 | 39 | 28 |  |  |  |  |  | 
CN1CCN(N=Cc2ccc(-c3ccc([N+](=O)[O-])cc3)o2)CC1 [Compound 3, N ‐(4‐methylpiperazin‐1‐yl)‐1‐(5‐(4‐nitrophenyl)furan‐2‐yl)methanimine] |  | 44 |  | 5.61 ± 1.11 | substantial stability | 0.752 | 3.15 ± 0.03 |  | 
N#Cc1ccc(-c2ccc(/C=N/Nc3ccc(S(N)(=O)=O)cc3)o2)cc1 [Compound 12] |  |  | 28 | 10 ± 1.9 |  | 0.466 |  | 1.67 ± 0.19 | 
O=C(NN=Cc1ccc(-c2ccc([N+](=O)[O-])cc2)o1)c1cccs1 [Compound 1, N ′‐((5‐(4‐nitrophenyl)furan‐2‐yl)methylene)thiophene‐2‐carbohydrazide] | 33 | 40 |  |  |  | 0.947 | 3.67 ± 0.92 |  | 
N#Cc1ccc(-c2ccc(/C=N/NC(=O)c3ccncc3)o2)cc1 [Compound 5, N ′‐((5‐(4‐cyanophenyl)furan‐yl)methylene)isonicotinohydrazide] |  | 27 |  | 6.62 ± 0.71 |  | 0.312 | 12.6 ± 0.9 |  | 
COc1cc(C=NNC(=O)c2cccs2)ccc1-c1ccc(C#N)cc1 [Compound 13, N ′‐[(4′‐cyano‐2‐methoxy[1,1′‐biphenyl]‐4‐yl)methylidene]thiophene‐2‐carbohydrazide] | 29 | 35 |  |  |  | 0.549 | 2.32 ± 0.43 |  | 
CN1CCN(N=Cc2ccco2)CC1 [Compound 16, 1‐(Furan‐2‐yl)‐N‐(4‐methylpiperazin‐1‐yl)methanimine] | 18 | 21 | 13 |  |  |  |  |  | 
N#Cc1ccc(-c2ccc(C=NNC(=O)c3cccs3)o2)cc1 [Compound 4, N ′‐((5‐(4‐cyanophenyl)furan‐2‐yl)methylene)thiophene‐2‐carbohydrazide] |  | 51 |  | 1.46 ± 0.21 | substantial stability |  | 2.63 ± 0.42 |  | 
COc1ccc(N/N=C/c2ccc(-c3ccc(C#N)cc3)o2)cc1 [Compound 10] | 47 |  | 29 |  |  |  |  |  | 
COc1cccc(/C=N/NC(=O)c2ccncc2)c1 [Compound 19] | 19 |  |  |  |  | 0.129 | 12.2 ± 1.5 | 11.2 ± 1.6 | 
O=C(Cc1ccccc1)NN=Cc1ccco1 [Compound 17, N ′‐((furan‐2‐yl)methylidene)‐2‐phenylacetohydrazide] | 22 | 52 | 22 |  |  |  |  |  | 
COc1cc(C=NN2CC(=O)NC2=O)cc(OC)c1OC [Compound 21, 1‐(((3,4,5‐trimethoxyphenyl)methylidene)amino)imidazolidine‐2,4‐dione] | 8 | 28 | 18 |  |  |  |  |  | 
N#Cc1ccc(-c2ccc(/C=N/N3CC(=O)NC3=O)o2)cc1 [Compound 7] | 40 | 28 | 50 |  |  |  |  |  | 
COc1cccc(C=NNc2ccc(S(N)(=O)=O)cc2)c1 [Compound 20, 4‐(2‐((3‐methoxyphenyl)methylidene)hydrazinyl)benzene‐1‐sulfonamide] | 42 |  |  |  |  | 0.307 | 0.81 ± 0.04 | 10.2 ± 1.6 | 
CC(=O)NN=Cc1ccc(-c2ccc(C#N)cc2)o1 [Compound 6, N ′‐((5‐(4‐cyanophenyl)furan‐2‐yl)methylene)acetohydrazide] |  | 38 |  | 4.25 ± 0.45 |  | 0.236 | 2.65 ± 0.11 |  | 
O=C(N/N=C/c1ccc(-c2ccc([N+](=O)[O-])cc2)o1)c1ccncc1 [Compound 2] |  | 30 |  | 7.89 ± 1.1 |  | 0.522 | 3.56 ± 0.36 |  | 
O=C1CN(/N=C/c2ccco2)C(=O)N1 [Compound 14] | 11 |  |  |  |  | −1.018 |  | 9.06 ± 0.45 | no inhibition
NS(=O)(=O)c1ccc(NN=Cc2ccco2)cc1 [Compound 18, 4‐(‐2‐((furan‐2‐yl)methylidene)hydrazinyl)benzene‐1‐sulfonamide] | 25 | 27 | 21 |  |  |  |  |  | 
O=C(N/N=C/c1ccco1)c1cccs1 [Compound 15] | 16 |  | 13 |  |  | −0.010 |  | 7.18 ± 0.07 | 
N#Cc1ccc(-c2ccc(C=NNC(=O)Cc3ccccc3)o2)cc1 [Compound 8, N ′‐((5‐(4‐cyanophenyl)furan‐2‐yl)methylene)‐2‐phenyl‐acetohydrazide] |  | 16 |  | 5.51 ± 0.54 |  | 0.803 | 3.61 ± 0.04 |  | 
